From patent publication US8735322B2, “Herbicides” (Syngenta Limited, priority 2008, dated 2014)

Experiments:
Format in all cases: in vivo
[1] = system: Echinochloa crus-galli (ECHCG); assay: Example A post-emergence herbicidal activity, glasshouse pot test; details: 360 h, rate 500 g/ha, evaluated 15 days after spraying, read-out: herbicidal damage ECHCG (100=total damage to plant; 0=no damage to plant)
Procedure: (§1) Seeds of a variety of test species were sown in standard soil in pots. After cultivation for one day (pre-emergence) or after 10 days cultivation (post-emergence) under controlled conditions in a glasshouse, the plants were sprayed with an aqueous spray solution derived from the formulation of the technical active ingredient in 0.6 ml acetone and 45 ml formulation solution containing 10.6% Emulsogen EL (Registry number 61791-12-6), 42.2% N-methylpyrrolidone, 42.2% dipropylene glycol monomethyl ether (Registry number 34590-94-8) and 0.2% X-77 (Registry number 11097-66-8). The test plants were then grown in a greenhouse under optimum conditions until, 15 days later for post-emergence and 20 days for pre-emergence, the test was evaluated (100=total damage to plant; 0=no damage to plant). Alopecurus myosuroides (ALOMY), Avena fatua (AVEFA), Lolium perenne (LOLPE), Setaria faberi (SETFA), Digitaria sanguinalis (DIGSA), Echinochloa crus-galli (ECHCG) Post Emergency Activity

[2] = system: Setaria faberi (SETFA); assay: as above; details: 360 h, rate 500 g/ha, evaluated 15 days after spraying, read-out: herbicidal damage SETFA (100=total damage to plant; 0=no damage to plant)
Procedure: as §1

[3] = system: Lolium perenne (LOLPE); assay: as above; details: 360 h, rate 500 g/ha, evaluated 15 days after spraying, read-out: herbicidal damage LOLPE (100=total damage to plant; 0=no damage to plant)
Procedure: as §1

[4] = system: Digitaria sanguinalis (DIGSA); assay: as above; details: 360 h, rate 500 g/ha, evaluated 15 days after spraying, read-out: herbicidal damage DIGSA (100=total damage to plant; 0=no damage to plant)
Procedure: as §1

[5] = system: Alopecurus myosuroides (ALOMY); assay: as above; details: 360 h, rate 500 g/ha, evaluated 15 days after spraying, read-out: herbicidal damage ALOMY (100=total damage to plant; 0=no damage to plant)
Procedure: as §1

[6] = system: Avena fatua (AVEFA); assay: as above; details: 360 h, rate 500 g/ha, evaluated 15 days after spraying, read-out: herbicidal damage AVEFA (100=total damage to plant; 0=no damage to plant)
Procedure: as §1

[7] = system: Echinochloa crus-galli (ECHCG); assay: Example A pre-emergence herbicidal activity, glasshouse pot test; details: 480 h, rate 500 g/ha, evaluated 20 days later, 100=total damage to plant, 0=no damage to plant
Procedure: as §1, with “Pre-Emergence” for “Post Emergency”

[8] = system: Setaria faberi (SETFA); assay: as above; details: 480 h, rate 500 g/ha, evaluated 20 days later, 100=total damage to plant, 0=no damage to plant
Procedure: as §1, with “Pre-Emergence” for “Post Emergency”

[9] = system: Lolium perenne (LOLPE); assay: as above; details: 480 h, rate 500 g/ha, evaluated 20 days later, 100=total damage to plant, 0=no damage to plant
Procedure: as §1, with “Pre-Emergence” for “Post Emergency”

[10] = system: Digitaria sanguinalis (DIGSA); assay: as above; details: 480 h, rate 500 g/ha, evaluated 20 days later, 100=total damage to plant, 0=no damage to plant
Procedure: as §1, with “Pre-Emergence” for “Post Emergency”

[11] = system: Alopecurus myosuroides (ALOMY); assay: as above; details: 480 h, rate 500 g/ha, evaluated 20 days later, 100=total damage to plant, 0=no damage to plant
Procedure: as §1, with “Pre-Emergence” for “Post Emergency”

[12] = system: Avena fatua (AVEFA); assay: as above; details: 480 h, rate 500 g/ha, evaluated 20 days later, 100=total damage to plant, 0=no damage to plant
Procedure: as §1, with “Pre-Emergence” for “Post Emergency”

SMILES | pest or weed control at 500 g/ha [1] | pest or weed control at 500 g/ha [2] | pest or weed control at 500 g/ha [3] | pest or weed control at 500 g/ha [4] | pest or weed control at 500 g/ha [5] | pest or weed control at 500 g/ha [6] | pest or weed control at 500 g/ha [7] | pest or weed control at 500 g/ha [8] | pest or weed control at 500 g/ha [9] | pest or weed control at 500 g/ha [10] | pest or weed control at 500 g/ha [11] | pest or weed control at 500 g/ha [12]
Cc1cc(C)c(C2=C(O)CC(CC3CCOCC3)CC2=O)c(C)c1 (centres unmarked) [Compound A-9] | 90% | 80% | 80% | 70% | 80% | 70% | 70% | 90% | 100% | 100% | 100% | 60%
Cc1cc(C)c(C2=C(O)CC(C(C)C3CCOCC3)CC2=O)c(C)c1 (centres unmarked) [Compound A-10] | 50% | 50% | 60% | 70% | 80% | 80% | 80% | 60% | 70% | 60% | 50% | 50%
CCc1cc(C)cc(CC)c1C1=C(O)CC(C(C)C2CCOCC2)CC1=O (centres unmarked) [Compound A-11] | 100% | 80% | 90% | 90% | 100% | 90% | 70% | – | 100% | – | 100% | 100%
CCc1cc(CC)c(C2=C(O)CC(C(C)C3CCOCC3)CC2=O)c(CC)c1 (centres unmarked) [Compound A-12] | 80% | 70% | 80% | 70% | 80% | 80% | 70% | 60% | 100% | 70% | – | 40%
CCc1ccc(-c2ccc(Cl)cc2)cc1C1=C(O)CC(C(C)C2CCOCC2)CC1=O (centres unmarked) [Compound A-13] | 100% | 50% | 70% | 90% | 80% | 30% | 30% | 30% | 10% | 30% | 30% | 20%
CCc1cc(C)cc(CC)c1C1=C(O)CC(CC2CCSCC2)CC1=O (centres unmarked) [Compound A-14] | 100% | 100% | 90% | 70% | 100% | 100% | 80% | 100% | 90% | 100% | 80% | 70%
CCc1cc(C)cc(CC)c1C1=C(O)CC(CC2CC[S+]([O-])CC2)CC1=O (centres unmarked) [Compound A-16] | 70% | 80% | 90% | 100% | 60% | 90% | 100% | – | 100% | 100% | 100% | 90%
